Assay results reported in ChEMBL document CHEMBL3885881, “DrugMatrix”.

Organism: Rattus norvegicus
Experiment: DrugMatrix - Regimen: Daily Repeat
Type: toxicity, organism-based, Sprague-Dawley
Set-up: regimen Daily Repeat, gender Male, age 6-8 weeks
Details: in vivo, po, 600 mg/kg, route oral GAVAGE, dose level High, vehicle 100 % WATER; for ABSOLUTE BASOPHIL / ABSOLUTE EOSINOPHIL / ABSOLUTE LYMPHOCYTE / ABSOLUTE MONOCYTE / ABSOLUTE SEGMENTED NEUTROPHIL / BASOPHIL / EOSINOPHIL / ERYTHROCYTE COUNT / HEMATOCRIT / HEMOGLOBIN / LEUKOCYTE COUNT / LYMPHOCYTE / MEAN CORPUSCULAR HEMOGLOBIN / MEAN CORPUSCULAR HEMOGLOBIN CONCENTRATION / MEAN CORPUSCULAR VOLUME / MONOCYTE / NEUTROPHIL / NUCLEATED RED BLOOD CELLS / PLATELET COUNT: tissue Blood; for ALANINE AMINOTRANSFERASE / ALBUMIN / ALKALINE PHOSPHATASE / ASPARTATE AMINOTRANSFERASE / BLOOD UREA NITROGEN / CARBON DIOXIDE / CHLORIDE / CHOLESTEROL / CREATINE PHOSPHOKINASE / CREATININE / GLUCOSE / LACTATE DEHYDROGENASE / LIPASE / PHOSPHORUS / POTASSIUM / SODIUM / TOTAL BILIRUBIN / TOTAL PROTEIN / URIC ACID: tissue Plasma

## C=C(Cl)Cl [1,1-DICHLOROETHENE]
72 h, time 3 day
  ABSOLUTE BASOPHIL: 0 CELLS/uL
  ABSOLUTE EOSINOPHIL: 0 CELLS/uL
  ABSOLUTE LYMPHOCYTE: 19725 CELLS/uL
  ABSOLUTE MONOCYTE: 397.33 CELLS/uL
  ABSOLUTE SEGMENTED NEUTROPHIL: 2311 CELLS/uL
  BASOPHIL: 0%
  EOSINOPHIL: 0%
  ERYTHROCYTE COUNT: 5.83 x10E6/uL
  HEMATOCRIT: 37.37%
  HEMOGLOBIN: 15.3 G/DL
  LEUKOCYTE COUNT: 22.43 x10E3/uL
  LYMPHOCYTE: 88.33%
  MEAN CORPUSCULAR HEMOGLOBIN: 26.2 pg
  MEAN CORPUSCULAR HEMOGLOBIN CONCENTRATION: 40.93 G/DL
  MEAN CORPUSCULAR VOLUME: 64 fL
  MONOCYTE: 2%
  NEUTROPHIL: 9.67%
  NUCLEATED RED BLOOD CELLS: 0.33 /100WBC
  PLATELET COUNT: 1189.67 x10E3/uL
  ALANINE AMINOTRANSFERASE: 61.33 u/L
  ALBUMIN: 4.23 G/DL
  ALKALINE PHOSPHATASE: 458.33 u/L
  ASPARTATE AMINOTRANSFERASE: 80 u/L
  BLOOD UREA NITROGEN: 11.33 mg/dL
  CARBON DIOXIDE: 26 mmol/L
  CHLORIDE: 103.67 MEQ/L
  CHOLESTEROL: 79.67 mg/dL
  CREATINE PHOSPHOKINASE: 213.67 u/L
  CREATININE: 0.17 mg/dL
  GLUCOSE: 159 mg/dL
  LACTATE DEHYDROGENASE: 74.33 u/L
  LIPASE: 9.67 u/L
  PHOSPHORUS: 12.7 mg/dL
  POTASSIUM: 6.59 MEQ/L
  SODIUM: 144.9 MEQ/L
  TOTAL BILIRUBIN: 0.2 mg/dL
  TOTAL PROTEIN: 5.83 G/DL
  URIC ACID: 1.9 mg/dL
120 h, time 5 day
  ABSOLUTE BASOPHIL: 0 CELLS/uL
  ABSOLUTE EOSINOPHIL: 0 CELLS/uL
  ABSOLUTE LYMPHOCYTE: 18262.67 CELLS/uL
  ABSOLUTE MONOCYTE: 288.67 CELLS/uL
  ABSOLUTE SEGMENTED NEUTROPHIL: 2115.33 CELLS/uL
  BASOPHIL: 0%
  EOSINOPHIL: 0%
  ERYTHROCYTE COUNT: 5.83 x10E6/uL
  HEMATOCRIT: 36.67%
  HEMOGLOBIN: 14.73 G/DL
  LEUKOCYTE COUNT: 20.67 x10E3/uL
  LYMPHOCYTE: 89%
  MEAN CORPUSCULAR HEMOGLOBIN: 25.23 pg
  MEAN CORPUSCULAR HEMOGLOBIN CONCENTRATION: 40.2 G/DL
  MEAN CORPUSCULAR VOLUME: 62.87 fL
  MONOCYTE: 1.33%
  NEUTROPHIL: 9.67%
  NUCLEATED RED BLOOD CELLS: 0.33 /100WBC
  PLATELET COUNT: 1233.33 x10E3/uL
  ALANINE AMINOTRANSFERASE: 48 u/L
  ALBUMIN: 4.23 G/DL
  ALKALINE PHOSPHATASE: 376.33 u/L
  ASPARTATE AMINOTRANSFERASE: 81 u/L
  BLOOD UREA NITROGEN: 14.67 mg/dL
  CARBON DIOXIDE: 23.33 mmol/L
  CHLORIDE: 102 MEQ/L
  CHOLESTEROL: 75 mg/dL
  CREATINE PHOSPHOKINASE: 337.67 u/L
  CREATININE: 0.21 mg/dL
  GLUCOSE: 150.33 mg/dL
  LACTATE DEHYDROGENASE: 117.33 u/L
  LIPASE: 10 u/L
  PHOSPHORUS: 12.33 mg/dL
  POTASSIUM: 7.1 MEQ/L
  SODIUM: 144.9 MEQ/L
  TOTAL BILIRUBIN: 0.2 mg/dL
  TOTAL PROTEIN: 6.1 G/DL
  URIC ACID: 1.77 mg/dL
